Blank lines part the entries; values can stand above or below the compound they belong to.
Assays:
[1] = molecular target: T1, Lysosomal Pro-X carboxypeptidase (Mus musculus, UniProt Q7TMR0); test: Inhibition of PrCP-mediated angiotensin3 cleavage in mouse plasma using exogenous angiotensin III as substrate for 8 mins by LC/MS analysis
T1 sequence (Q7TMR0 whole entry): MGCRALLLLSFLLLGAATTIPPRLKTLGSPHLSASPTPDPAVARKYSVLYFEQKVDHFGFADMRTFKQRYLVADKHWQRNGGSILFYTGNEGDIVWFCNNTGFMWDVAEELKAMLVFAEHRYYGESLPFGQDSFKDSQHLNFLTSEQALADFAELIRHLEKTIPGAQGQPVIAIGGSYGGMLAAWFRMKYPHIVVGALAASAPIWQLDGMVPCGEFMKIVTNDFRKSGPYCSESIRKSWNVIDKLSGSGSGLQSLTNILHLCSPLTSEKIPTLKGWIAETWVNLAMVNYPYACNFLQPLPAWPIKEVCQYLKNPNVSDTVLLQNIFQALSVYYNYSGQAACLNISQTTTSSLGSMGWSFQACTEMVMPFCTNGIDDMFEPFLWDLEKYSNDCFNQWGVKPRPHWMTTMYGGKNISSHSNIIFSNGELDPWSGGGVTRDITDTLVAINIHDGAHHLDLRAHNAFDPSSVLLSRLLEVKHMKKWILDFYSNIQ

[2] = molecular target: T2, Lysosomal Pro-X carboxypeptidase (Homo sapiens, UniProt P42785); test: Inhibition of human recombinant PrCP using Mca-Ala-Pro-Lys(Dnp)-OH as substrate for 30 mins by continuous fluorimetric assay
T2 sequence (P42785 whole entry): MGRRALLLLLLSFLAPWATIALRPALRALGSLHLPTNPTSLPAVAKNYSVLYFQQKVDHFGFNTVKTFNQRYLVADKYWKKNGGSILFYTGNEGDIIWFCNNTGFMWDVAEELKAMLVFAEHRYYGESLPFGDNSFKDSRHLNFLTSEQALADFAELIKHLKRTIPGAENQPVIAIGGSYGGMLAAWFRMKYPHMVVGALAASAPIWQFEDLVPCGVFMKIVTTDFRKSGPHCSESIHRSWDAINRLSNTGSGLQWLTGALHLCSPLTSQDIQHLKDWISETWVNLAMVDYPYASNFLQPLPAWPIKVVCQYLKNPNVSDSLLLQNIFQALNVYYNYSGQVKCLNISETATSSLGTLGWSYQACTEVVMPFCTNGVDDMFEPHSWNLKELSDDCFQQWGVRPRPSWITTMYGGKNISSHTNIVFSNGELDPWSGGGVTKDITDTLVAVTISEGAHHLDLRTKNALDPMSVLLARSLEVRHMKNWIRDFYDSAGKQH

[3] = molecular target: T3, Lysosomal Pro-X carboxypeptidase (Homo sapiens) (UniProt P42785); test: Inhibition of human recombinant PrCP using Mca-Ala-Pro-Lys(Dnp)-OH as substrate at 0.5 uM for 30 mins by continuous fluorimetric assay
T3 sequence (whole entry): T2 sequence (P42785 whole entry)

[4] = molecular target: T3, Lysosomal Pro-X carboxypeptidase (Homo sapiens); test: Inhibition of human recombinant PrCP using Mca-Ala-Pro-Lys(Dnp)-OH as substrate at 5 uM for 30 mins by continuous fluorimetric assay
[5] = molecular target: T1, Lysosomal Pro-X carboxypeptidase; test: Inhibition of mouse recombinant PrCP using Mca-Ala-Pro-Lys(Dnp)-OH as substrate for 30 mins by continuous fluorimetric assay
[6] = Oral bioavailability in mouse at 2 mg/kg; format: ADME, organism-based; conditions: in vivo
[7] = Half life in mouse at 1 mg/kg, iv and 2 mg/kg, po; format: ADME, organism-based; conditions: in vivo
[8] = Volume of distribution at steady state in mouse at 1 mg/kg, iv and 2 mg/kg, po; format: ADME, organism-based; conditions: in vivo, read-out: Vdss
Mus musculus = test: Dose normalized AUC in mouse at 2 mg/kg, po; format: ADME, organism-based; design: dose 2 mg/kg, route oral; conditions: in vivo
[9] = Clearance in mouse at 1 mg/kg, iv and 2 mg/kg, po; format: ADME, organism-based; conditions: in vivo

IC50 [1]: 5000 nM
Compound: C[C@H](NC(=O)CCN1CCN(c2cccc(F)c2)CC1)c1nc2cc(Cl)c(Cl)cc2[nH]1

IC50 [2]: > 10000 nM
Compound: CC(C)(C)OC(=O)N[C@@H](Cc1ccc(-c2ccccc2)cc1)C(=O)N1CCCC[C@H]1c1nc2cc(Cl)c(Cl)cc2[nH]1

inhibition [3]: 3% | inhibition [4]: 13%
Compound: O=C(CCCOc1ccccc1)N[C@@H](Cc1ccccc1)c1ncc(-c2ccc(F)cc2)[nH]1

IC50 [1]: 5000 nM
Compound: C[C@H](NC(=O)[C@@H](N)Cc1cccc(C#N)c1)c1nc2cc(Cl)c(Cl)cc2[nH]1

IC50 [1]: 22 nM | IC50 [5]: 0.039 nM | bioavailability [6]: 17% | half-life [7]: 4 h | Vd [8]: 14 L/kg | AUC/dose (Mus musculus): 0.52 µM·kg·h/mg | clearance [9]: 58 mL/min/kg
Compound: C[C@H](NC(=O)[C@@H](NC(=O)C(C)(C)N)[C@@H](C)c1ccc(-c2ccccc2)cc1)c1nc2cc(Cl)c(Cl)cc2[nH]1

IC50 [2]: > 10000 nM
Compound: Clc1cc2nc(-c3cccnc3OCCc3ccc(-c4ccccc4)cc3)[nH]c2cc1Cl

IC50 [1]: 78 nM
Compound: C[C@H](NC(=O)[C@@H](NC(=O)C(C)(C)O)[C@@H](C)c1ccc(-c2cn[nH]c2)cc1)c1nc2cc(Cl)c(Cl)cc2[nH]1

IC50 [1]: 20000 nM
Compound: C[C@H](NC(=O)CCN1CCN(c2ccc(F)cc2)CC1)c1nc2cc(Cl)c(Cl)cc2[nH]1

IC50 [1]: 92 nM
Compound: C[C@H](NC(=O)[C@@H](NC(=O)C(C)(C)N)[C@@H](C)c1ccc(OCC(F)(F)F)cc1)c1nc2cc(Cl)c(Cl)cc2[nH]1

IC50 [1]: 45 nM
Compound: C[C@H](NC(=O)[C@@H](NC(=O)C(C)(C)O)[C@@H](C)c1ccc(OCC(F)(F)F)cc1)c1nc2cc(Cl)c(Cl)cc2[nH]1

IC50 [2]: > 10000 nM
Compound: O=C(CCc1ccc(-c2ccccc2)cc1)NCc1nc2cc(Cl)c(Cl)cc2[nH]1

inhibition [3]: 65% | inhibition [4]: 90%
Compound: COc1cccc(-c2cnc([C@H](C)NC(=O)CCCOc3ccccc3)[nH]2)c1

IC50 [2]: 181 nM
Compound: CC(C)(NC(=O)CCN1CCC(c2ccccc2)CC1)c1nc2cc(Cl)c(Cl)cc2[nH]1

IC50 [1]: 1600 nM | IC50 [5]: 128 nM
Compound: C[C@H](NC(=O)[C@H](Cc1cccc(C#N)c1)NC(=O)C(C)(C)N)c1nc2cc(Cl)c(Cl)cc2[nH]1

inhibition [3]: 7% | inhibition [4]: 31%
Compound: COc1cccc(-c2cnc(C(NC(=O)CCCOc3ccccc3)C3CCCCC3)[nH]2)c1 (configuration not stated)

IC50 [1]: 585 nM
Compound: C[C@H](NC(=O)[C@H](Cc1ccc(-c2ccccc2)cc1)NCC(C)(C)N)c1nc2cc(Cl)c(Cl)cc2[nH]1

IC50 [2]: > 10000 nM
Compound: Clc1cc2nc(-c3cccnc3NCCc3ccc(-c4ccccc4)cc3)[nH]c2cc1Cl

— ChEMBL document CHEMBL1949559, “Discovery of a new class of potent prolylcarboxypeptidase inhibitors derived from alanine” (Bioorg Med Chem Lett, 2012)
